Measured values from patent US10722518B2, “Oxazine derivative for use in the treatment or prevention of cerebral amyloid angiopathy” (Novartis AG, priority 2016, dated 2020).
Where two headings read alike, the source gives them in different places.

How the values were obtained:
[1] = 13-week oral safety study in aged APP23 mice: body weight; assay type: in vivo, mouse; conditions: chronic treatment, 13 weeks; aged female APP23 mice
Description: Body weight range: 26 to 36 g (at start of dosing)
Means and standard deviations (SD), standard error of the mean (SEM) and coefficient of variation (CV) as indicated accordingly were calculated and an Analysis of Variance (ANOVA) performed. For the analysis of body weights a 2way ANOVA with Turkey's multiple comparison test was performed using GraphPad Prism 6. ANOVA with random effects statistical analyses were performed on MRI data using Systat Version 13 (Systat Software, Inc., San Jose, Calif., USA).

[2] = 3-month dose-ranging safety and tolerability study; assay type: in vivo, human; conditions: once-daily doses of 2, 10, 35 and 85 mg over three months; healthy elderly
Source text: (§1) This study is listed in ClinicalTrials.gov under the NCT02576639 Identifier code.
(§2) The primary purpose of this study was to expand on previous safety and tolerability data obtained over 2-week and 4-week duration in the first in human study and thereby allow initiation of future long-term efficacy trials in subjects at risk of AD and CAA. In addition, data relevant for Pharmacokinetic/Pharmacodynamic modeling was obtained in order to support dose selection decisions for future efficacy studies.

[3] = test system: Aβ40 levels in APOE4-TR mouse brain; experiment: Acute PK/PD dose-response study in APOE4-TR mice: Aβ40 in forebrain (MSD assay); assay type: in vivo; conditions: for Mini AUEC (brain Aβ40): 4 h and 24 h; for Aβ40 reduction, range over doses: 3, 10 and 30 μmol/kg
Description: Male and female transgenic homozygous APOE4-TR (B6. 129P2-Apoe^tm3(APOE*4)Mae N8, Taconic, Model 001549, 3-5 months old, n=48) were obtained from Taconic.
Compound 1 was formulated as a suspension. Vehicle or compound was given by oral administration in a volume of 10 ml/kg once. Vehicle: 0.1% Tween80 in 0.5% Methylcellulose in water. […]
Frozen mouse forebrains were weighed and homogenized in 9 volumes (w/v) of ice-cold TBS-Complete (20 mM Tris-HCl pH 7.4, 137 mM NaCl, 1× Complete [Protease Inhibitor Cocktail Tablets: 1 836 145, Roche Diagnostics GmbH, Penzberg, Germany]) by sonication (90% duty cycle, output control 5, 40-55 pulses, [Sonifier 450, Branson]). After homogenization several 50 μl aliquots were prepared for analysis and were stored at −80° C.
Endogenous Aβ40 in mice was determined with the Meso Scale Discovery (MSD) 96-well MULTI-ARRAY human/rodent (4G8) Aβ40 Ultrasensitive Assay (#K110FTE-3, Meso Scale Discovery, Gaithersburg, USA). The assay was performed according to the manufacturer's instructions except for the calibration curve and the sample preparations. TritonX-100 (TX-100) soluble Aβ40 was extracted from forebrain with 1% TX-100 using a 50 μl aliquot of each 1:10 forebrain homogenate, mixed with 50 μl 2% TX-100 in TBS complete (20 mM Tris-HCl pH 7.4, 137 mM NaCl, 1× Complete [Protease Inhibitor Cocktail Tablets: 1 836 145, Roche Diagnostics GmbH, Penzberg Germany]) to reach a final concentration of 1% TX-100 and a 1:20 forebrain dilution. The samples were incubated for 15 min on ice and vortexed every 5 min. The samples were ultra-centrifuged (100000×g, 4° C., 15 min) and 50 μl of the clear supernatants were transferred to fresh tubes. For the Aβ40 assay the supernatants were further diluted 1:5 in 3% Blocker A solution (from kit) to a final forebrain dilution of 1:100 and applied to the plate.
The calibration curve was prepared in a corresponding dilution of 1% Blocker A solution spiked with synthetic Aβ1-40 peptide (1.56-100 pg/ml) except for non-transgenic mouse brain samples: In this case, the calibration curve was prepared in a correspondingly diluted APP knockout mouse forebrain spiked with synthetic Aβ1-40 peptide (1.56-100 pg/ml). For all samples and standards 25 μl were applied per well. For each determination duplicate wells were done. The mean values from the duplicate wells were used for calculations.

[4] = test system: Aβ40 in CSF; experiment: 3-month dose-ranging study: Aβ40 in CSF; assay type: in vivo; conditions: first-in-human and 3-month studies
Source text: as §1, §2
The extent of Aβ lowering was stable over time with PD steady-state being reached after approximately 2-3 weeks.
In the completed first-in-human and 3-month dose-ranging safety and tolerability clinical studies described in Examples 3 and 4, Aβ concentrations in CSF were obtained by means of lumbar punctures before the first dose (baseline) and respectively after 2 weeks and 3 months of multiple dosing. ApoE4 genotype also was obtained in the subjects who consented. The percent change from baseline in Aβ40 and Aβ42 concentrations was calculated in subjects who took the study treatment and had no major protocol deviation with potential impact on the evaluation of the pharmacodynamic effect. Tables 13 to 16 below provide summary statistics of the percent change from baseline by treatment group and ApoE genotype (E4 heterozygotes versus E4 non-carriers). […]

[5] = Off-target binding or activity
[6] = test system: APP23 mice; experiment: 13-week oral safety study in aged APP23 mice: MRI of microhaemorrhagic lesions; assay type: in vivo, mouse; conditions: aged female APP23 mice
Description: The APP23 mouse strain was chosen because of the existence of microhaemorrhages in aged animals. Females were chosen because of having a much higher overall Aβ load, a higher Aβ40/Aβ42 ratio and thus more pronounced microhaemorrhages.
β1 antibody administration: intraperitoneal, once weekly. Dosage volume: 0.15 mL/mouse (maximum 10 mL/kg)
Animal species and strain: Mouse; transgenic APP23 (B6.D2-Tg(Thy1App)23/1Sdz)
Sex: Females (females have a much higher overall Aβ load, a higher Aβ40/Aβ42 ratio and thus more pronounced microhaemorrhages)
Age: Approximately 17-18 months (at start of dosing)
For MRI investigations, mice were anesthetized with 1.5% isoflurane (Abbott, Cham, Switzerland) in a mixture of oxygen/N2O (2:1) administered via a face mask and placed in a Plexiglas cradle. […] Respiration was monitored throughout the acquisitions. […]
Acquisition and analysis of the MRI data were performed by a blinded investigator. Sites in the cortex and thalamus presenting signal attenuation with a minimum diameter of 70 μm (lesions) were analyzed throughout the whole brain. To ensure that the same site (lesion) was not counted multiple times, its presence was carefully controlled over several consecutive slices from the 3D data set. The total volume of the lesions was assessed using ImgTool, an IDL (Interactive Data Language Research Systems, Boulder, Colo., USA) based software. […]

[7] = both, APOE4-TR, mouse, in vivo
Description: Vehicle or compound was given by oral administration in a volume of 10 ml/kg once. Vehicle: 0.1% Tween80 in 0.5% Methylcellulose in water.
The right brain was fixed in 4% paraformaldehyde, washed in PBS and then embedded in paraffin for possible future histological analyses.

SMILES: C[C@@]1(c2nc(NC(=O)c3ncc(C(F)(F)F)cc3Cl)ccc2F)CO[C@@](C)(C(F)(F)F)C(N)=N1 [Compound 1, N-(6-((3R,6R)-5-amino-3,6-dimethyl-6-(trifluoromethyl)-3,6-dihydro-2H-1,4-oxazin-3-yl)-5-fluoropyridin-2-yl)-3-chloro-5-(trifluoromethyl)picolinamide]
- body weight [1]: did not lead to any change in body weight
- safety and tolerability [2]: safe and tolerated
- % reduction vs vehicle (brain Aβ40) ([3]; 3 μmol/kg acute, 4 h): 43%
- Average Aβ40 brain ± SD ([3]; 3 μmol/kg acute, 4 h): 0.114 ± 0.024 pmol/g
- Mini AUEC (brain Aβ40) ([3]; 3 μmol/kg acute): 32%
- % reduction vs vehicle (brain Aβ40) ([3]; 3 μmol/kg acute, 24 h): 20%
- Average Aβ40 brain ± SD ([3]; 3 μmol/kg acute, 24 h): 0.160 ± 0.033 pmol/g
- % reduction vs vehicle (brain Aβ40) ([3]; 10 μmol/kg acute, 4 h): 63%
- Average Aβ40 brain ± SD ([3]; 10 μmol/kg acute, 4 h): 0.074 ± 0.014 pmol/g
- Mini AUEC (brain Aβ40) ([3]; 10 μmol/kg acute): 47%
- % reduction vs vehicle (brain Aβ40) ([3]; 10 μmol/kg acute, 24 h): 31%
- Average Aβ40 brain ± SD ([3]; 10 μmol/kg acute, 24 h): 0.139 ± 0.041 pmol/g
- % reduction vs vehicle (brain Aβ40) ([3]; 30 μmol/kg acute, 4 h): 77%
- Average Aβ40 brain ± SD ([3]; 30 μmol/kg acute, 4 h): 0.046 ± 0.006 pmol/g
- Mini AUEC (brain Aβ40) ([3]; 30 μmol/kg acute): 72%
- % reduction vs vehicle (brain Aβ40) ([3]; 30 μmol/kg acute, 24 h): 66%
- Average Aβ40 brain ± SD ([3]; 30 μmol/kg acute, 24 h): 0.068 ± 0.021 pmol/g
- Aβ40 reduction, range over doses ([3]; 4 h): 43-77%
- Aβ40 reduction, range over doses ([3]; 24 h): 20-66%
- Emax ([3]; Mus musculus, 30 μmol/kg acute, read-out: maximal effect on Aβ reduction in the brain): > 70%
- CSF Aβ40 and Aβ42 response to treatment, ApoE4 carriers vs non-carriers [4]: no difference
- off-target binding or activity [5]: no relevant off-target binding or activity
- total lesion volume detected by MRI ([6]; 1, 2 and 3 months of treatment): did not exacerbate lesion volumes
- lesion numbers (mean±SEM) by MRI ([6]; month 3): 11.5±2.0
- exposure reduction 4 h/24 h [7]: 2-5 fold
- AUCbrain (AUC0-24 h) ([7]; 3 umol/kg): 8.67 µmol·h/kg
- AUCbrain (AUC0-24 h) ([7]; 10 umol/kg): 15.83 µmol·h/kg
- AUCbrain (AUC0-24 h) ([7]; 30 umol/kg): 49.82 µmol·h/kg
